Experimental data as given in patent publication US20170166555A1, “FUNCTIONALISED AND SUBSTITUTED INDOLES AS ANTI-CANCER AGENTS” (Novogen Limited, priority 2013, published 2017).
Like-named read-outs stand apart in the source and are kept apart here. Values belong to the compound of their own block, whether it stands above or below them.

Columns and labels:
[1] = tested on: melanoma (SK-Mel-28) cells; assay: Cell viability assay (MTT, 48 hr); type: cell-based; conditions: Homo sapiens, 48 hr treatment, read-out: IC50 (μM) SKMEL28
Procedure: (§1) Cell viability assays were also conducted to assess the anti-proliferative effects of the anti-tropomyosin compounds 4001-4015. Briefly, cells (1×10^3/well) were plated (96-well) and treated (48 hr) with anti-tropomyosin drug and viability measured using 3-(4,5-dimethylthiazol-2-yl)-2,5-diphenylterazolium bromide MTT. Cell viability was normalized to control (vehicle alone) and dose-response curves, and half maximal effective concentration (EC50) values were determined using Graph Pad Prism 5 (nonlinear regression sigmoidal dose-response variable slope).

[2] = tested on: neuroblastoma (SH-EP) cells; assay: Cell viability assay (MTT, 48 hr); type: cell-based; conditions: 48 hr treatment, read-out: IC50 (μM) SHEP
Procedure: as §1

[3] = tested on: non-transfected and Tm5NM1 stably transfected MEFs; assay: MTT viability in non-transfected versus Tm5NM1 stably transfected MEFs; type: cell-based, mouse; conditions: 48 hr, FIG. 1
Procedure: FIG. 1: Activity of selected compounds against Tm5NM1/2 transfected mouse embryonic fibroblasts versus non-transfected MEFs.
Compounds 4001, 4010, 4014, 4008 and 4015 were then screened against non-transfected and Tm5NM1 stably transfected MEFs. Briefly, MEFs were transfected with pEYFP-C1/Tm5NM1 constructs using the Amaxa nucleofector apparatus (program A-023) and MEF nucleofector kit 1 (Lonza) according to the manufacturer's instructions. Cell viability assays were also conducted to assess the anti-proliferative effects of the anti-tropomyosin compounds. Briefly, cells (1×10^3/well) were plated (96-well) and treated (48 hr) with anti-tropomyosin compounds and viability measured using 3-(4,5-dimethylthiazol-2-yl)-2, 5-diphenylterazolium bromide MTT. Cell viability was normalized to control (vehicle alone) and dose-response curves, and half maximal effective concentration (EC50) values were determined using Graph Pad Prism 5 (nonlinear regression sigmoidal dose-response variable slope).

[4] = tested on: A549 non-small cell lung carcinoma cells; assay: Anti-proliferative assay, cell-titre luminescent reagent, 72 h (GVK-BIO); type: cell-based; conditions: Homo sapiens, read-out: IC50/μM Lung (NSLC) A549
In short: (§2)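 Cells were plated at predetermined densities in ATCC-recommended medium and allowed to attach for 24 h at 37 °C, 5% CO2 before dosing. The compound series was tested either at 30, 3, 0.3 and 0.03 μM with IC50 from linear regression of semi-log percent-of-control plots, or at 30, 10, 3, 1, 0.3 and 0.1 μM with EC50 from variable-slope sigmoidal nonlinear fits.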

[5] = tested on: CaCo2 colorectal cancer cells; assay: as above; type: cell-based; conditions: Homo sapiens
In short: as §2

[6] = tested on: DU145 prostate cancer cells; assay: as above; type: cell-based; conditions: Homo sapiens
In short: as §2

[7] = tested on: MDA-MB-231 triple negative breast cancer cells; assay: as above; type: cell-based; conditions: Homo sapiens
In short: as §2

[8] = tested on: PC3 prostate cancer cells; assay: as above; type: cell-based
In short: as §2

[9] = tested on: SK-Mel-28 melanoma cells; assay: as above; type: cell-based; conditions: Homo sapiens
In short: as §2

[10] = tested on: SK-N-SH neuroblastoma cells; assay: as above; type: cell-based; conditions: Homo sapiens
In short: as §2

[11] = A549, 72 h, 30, 3, 0.3 and 0.03 μM, linear regression (Tables 2-4)
[12] = Caco-2, 72 h, 30, 3, 0.3 and 0.03 μM, linear regression (Tables 2-4)
[13] = DU-145, 72 h, 30, 3, 0.3 and 0.03 μM, linear regression (Tables 2-4)
[14] = MDA-MB-231, 72 h, 30, 3, 0.3 and 0.03 μM, linear regression (Tables 2-4)
[15] = 30, 3, 0.3 and 0.03 μM, linear regression (Tables 2-4)
[16] = SK-MEL-28, 72 h, 30, 3, 0.3 and 0.03 μM, linear regression (Tables 2-4)
[17] = SK-N-SH, 30, 3, 0.3 and 0.03 μM, linear regression (Tables 2-4)
[18] = A549, 72 h, 30, 10, 3, 1, 0.3 and 0.1 μM, nonlinear regression (Table 5)
[19] = Caco-2, 72 h, 30, 10, 3, 1, 0.3 and 0.1 μM, nonlinear regression (Table 5)
[20] = DU-145, 72 h, 30, 10, 3, 1, 0.3 and 0.1 μM, nonlinear regression (Table 5)
[21] = MDA-MB-231, 72 h, 30, 10, 3, 1, 0.3 and 0.1 μM, nonlinear regression (Table 5)
[22] = 30, 10, 3, 1, 0.3 and 0.1 μM, nonlinear regression (Table 5)
[23] = SK-MEL-28, 72 h, 30, 10, 3, 1, 0.3 and 0.1 μM, nonlinear regression (Table 5)
[24] = SK-N-SH, 30, 10, 3, 1, 0.3 and 0.1 μM, nonlinear regression (Table 5)

SMILES: CN(C)CCCn1ccc2cc(Cc3ccc(C(=O)Nc4ccccc4)cc3)ccc21 [Compound 4001, 4-((1-(3-(dimethylamino)propyl)-1H-indol-5-yl)methyl)-N-phenylbenzamide]
IC50 [1]: 4.3 µM
IC50 [2]: 4.63 µM
Selectivity: toxicity against primary MEFs versus MEFs stably transfected with Tm5NM1/2 [3]: less toxicity noted against primary mouse embryonic fibroblasts (MEFs) compared with MEFs stably transfected with Tm5NM1/2
IC50 [4, 11]: 2.7 µM
IC50 [5, 12]: 3 µM
IC50 [6, 13]: 3.2 µM
IC50 [7, 14]: 3.1 µM
IC50 [8, 15]: 2.8 µM
IC50 [9, 16]: 3.6 µM
IC50 [10, 17]: 4.1 µM

SMILES: CN(C)CCCn1ccc2cc(Oc3ccc(C(=O)Nc4ccccc4)cc3)ccc21 [Compound 4002, 4-((1-(3-(dimethylamino)propyl)-1H-indol-5-yl)oxy)-N-phenylbenzamide]
IC50 [1]: 7.04 µM
IC50 [2]: 9.24 µM
IC50 [4, 18]: 16.3 µM
IC50 [5, 19]: 13.1 µM
IC50 [6, 20]: 37.4 µM
IC50 [7, 21]: 15.7 µM
IC50 [8, 22]: 12.4 µM
IC50 [9, 23]: 9.3 µM
IC50 [10, 24]: 3.2 µM

SMILES: CN(C)CCCn1ccc2cc(-c3cnn(Cc4ccccc4)c3)ccc21 [Compound 4003, 3-(5-(1-benzyl-1H-pyrazol-4-yl)-1H-indol-1-yl)-N,N-dimethylpropan-1-amine]
IC50 [1]: 25.9 µM

SMILES: CN(C)CCCn1ccc2cc(Cc3cccc(C(=O)Nc4ccccc4)c3)ccc21 [Compound 4008]
IC50 [1]: 3.4 µM
IC50 [2]: 2.7 µM
IC50 [4, 11]: 3.8 µM
IC50 [5, 12]: 5.8 µM
IC50 [6, 13]: 3.3 µM
IC50 [7, 14]: 3.9 µM
IC50 [8, 15]: 4.3 µM
IC50 [9, 16]: 3.3 µM
IC50 [10, 17]: 9.3 µM

SMILES: Cc1c(C)n(CCCN(C)C)c2ccc(Nc3ccc(C(=O)Nc4ccccc4)cc3)cc12 [Compound 4010, 4-((1-(3-(dimethylamino)propyl)-2,3-dimethyl-1H-indol-5-yl)amino)-N-phenylbenzamide]
IC50 [1]: 3.4 µM
IC50 [2]: 6.4 µM
Selectivity: toxicity against primary MEFs versus MEFs stably transfected with Tm5NM1/2 [3]: less toxicity noted against primary mouse embryonic fibroblasts (MEFs) compared with MEFs stably transfected with Tm5NM1/2
IC50 [4, 11]: 2.8 µM
IC50 [5, 12]: 3.5 µM
IC50 [6, 13]: 3.4 µM
IC50 [7, 14]: 2.6 µM
IC50 [8, 15]: 4 µM
IC50 [9, 16]: 3.4 µM
IC50 [10, 17]: 3.6 µM

SMILES: CN(C)CCCn1ccc2cc(Nc3cccc(C(=O)Nc4ccccc4)c3)ccc21 [Compound 4013, 3-((1-(3-(dimethylamino)propyl)-1H-indol-5-yl)amino)-N-phenylbenzamide]
IC50 [1]: 15.8 µM
IC50 [2]: 14.5 µM
IC50 [4, 11]: 7.6 µM
IC50 [5, 12]: > 30 µM
IC50 [6, 13]: > 30 µM
IC50 [7, 14]: 3.7 µM
IC50 [8, 15]: > 30 µM
IC50 [9, 16]: 9.2 µM
IC50 [10, 17]: 4.2 µM

SMILES: CN(C)CCCn1ccc2cc(Oc3cccc(C(=O)Nc4ccccc4)c3)ccc21 [Compound 4014, 3-((1-(3-(dimethylamino)propyl)-1H-indol-5-yl)oxy)-N-phenylbenzamide]
IC50 [1]: 4 µM
IC50 [2]: 4.3 µM
Selectivity: toxicity against primary MEFs versus MEFs stably transfected with Tm5NM1/2 [3]: less toxicity noted against primary mouse embryonic fibroblasts (MEFs) compared with MEFs stably transfected with Tm5NM1/2
IC50 [4, 11]: 2.9 µM
IC50 [5, 12]: 3.9 µM
IC50 [6, 13]: 3.6 µM
IC50 [7, 14]: 2.5 µM
IC50 [8, 15]: 3.7 µM
IC50 [9, 16]: 3.2 µM
IC50 [10, 17]: 3 µM

Further lines, results first:

IC50 [1]: 9.8 µM
IC50 [2]: 6.7 µM
SMILES: CC(c1ccccc1)n1cc(-c2ccc3c(ccn3CCCN(C)C)c2)cn1 (stereo not drawn) [Compound 4004, N,N-dimethyl-3-(5-(1-(1-phenylethyl)-1H-pyrazol-4-yl)-1H-indol-1-yl)propan-1-amine]

IC50 [1]: 53.8 µM
IC50 [2]: 5.4 µM
SMILES: CN(C)CCCn1ccc2cc(-c3cnn(CC4CCN(C)CC4)c3)ccc21 [Compound 4005, N,N-dimethyl-3-(5-(1-((1-methylpiperidin-4-yl)methyl)-1H-pyrazol-4-yl)-1H-indol-1-yl)propan-1-amine]

IC50 [2]: 107 µM
SMILES: CN(C)CCCn1ccc2cc(-c3cnn(CC4CCOCC4)c3)ccc21 [Compound 4006, N,N-dimethyl-3-(5-(1-((tetrahydro-2H-pyran-4-yl)methyl)-1H-pyrazol-4-yl)-1H-indol-1-yl)propan-1-amine]

IC50 [1]: 5.4 µM
IC50 [2]: 3 µM
SMILES: Cc1c(C)n(CCCN(C)C)c2ccc(-c3cnn(Cc4ccccc4)c3)cc12 [Compound 4009, 3-(5-(1-benzyl-1H-pyrazol-4-yl)-2,3-dimethyl-1H-indol-1-yl)-N,N-dimethylpropan-1-amine]

IC50 [1]: 9.7 µM
IC50 [2]: 8.7 µM
IC50 [4, 11]: 3 µM
IC50 [5, 12]: 2.8 µM
IC50 [6, 13]: 3.3 µM
IC50 [7, 14]: 2.5 µM
IC50 [8, 15]: 4.3 µM
IC50 [9, 16]: 6.1 µM
IC50 [10, 17]: 2.5 µM
SMILES: Cc1c(C)n(CCCN(C)C)c2ccc(Nc3cccc(C(=O)Nc4ccccc4)c3)cc12 [Compound 4011, 3-((1-(3-(dimethylamino)propyl)-2,3-dimethyl-1H-indol-5-yl)amino)-N-phenylbenzamide]

IC50 [4, 11]: 15 µM
IC50 [5, 12]: 29.6 µM
IC50 [6, 13]: > 30 µM
IC50 [7, 14]: 13.9 µM
IC50 [8, 15]: 21.8 µM
IC50 [9, 16]: 15.9 µM
IC50 [10, 17]: 10.9 µM
SMILES: Cc1c(C)n(CCCN2CCN(C)CC2)c2ccc(C(=O)N3CCN(CCc4cccc(F)c4)CC3)cc12 [Compound 4124, (2,3-dimethyl-1-(3-(4-methyl piperazin-1-yl)propyl)-1H-indol-5-yl)(4-(3-fluorophenethyl)piperazin-1-yl)methanone]

IC50 [4, 11]: 19.4 µM
IC50 [5, 12]: > 30 µM
IC50 [6, 13]: > 30 µM
IC50 [7, 14]: 33.2 µM
IC50 [8, 15]: > 30 µM
IC50 [9, 16]: 25 µM
IC50 [10, 17]: 14.9 µM
SMILES: COc1cccc(CCN2CCN(C(=O)c3ccc4c(c3)c(C)c(C)n4CCCN3CCN(C)CC3)CC2)c1 [Compound 4125, (2,3-dimethyl-1-(3-(4-methylpiperazin-1-yl)propyl)-1H-indol-5-yl)(4-(3-methoxyphenethyl)piperazin-1-yl)methanone]

IC50 [4, 18]: > 30 µM
IC50 [5, 19]: > 30 µM
IC50 [6, 20]: > 30 µM
IC50 [7, 21]: > 30 µM
IC50 [8, 22]: > 30 µM
IC50 [9, 23]: > 30 µM
IC50 [10, 24]: > 30 µM
SMILES: Cc1c(C)n(CCCN2CCN(C)CC2)c2ccc(C(=O)N3CCN(CCc4cccc(O)c4)CC3)cc12 [Compound 4126, (2,3-dimethyl-1-(3-(4-methylpiperazin-1-yl)propyl)-1H-indol-5-yl)(4-(3-hydroxyphenethyl)piperazin-1-yl)methanone]

IC50 [4, 11]: 13.1 µM
IC50 [5, 12]: 10.7 µM
IC50 [6, 13]: > 30 µM
IC50 [7, 14]: 13.5 µM
IC50 [8, 15]: 12.9 µM
IC50 [9, 16]: 14.4 µM
IC50 [10, 17]: 10.5 µM
SMILES: Cc1c(C)n(CCCN2CCN(C)CC2)c2ccc(C(=O)N3CCN(CCc4ccccc4)CC3)cc12 [Compound 4127, (2,3-dimethyl-1-(3-(4-methylpiperazin-1-yl)propyl)-1H-indol-5-yl)(4-phenethylpiperazin-1-yl)methanone]
